One assay has as its system S. aureus ATCC 10390. Nature of the assay: MIC determination with authentic compounds resynthesized in solution. The class given is cell-based, Staphylococcus aureus. The conditions noted are these: for MIC: Staphylococcus aureus, ATCC10390. As to the method:
(§1) For estimated MIC determination, DMSO was added to the dried compound residue obtained from a single spot to afford ca. 100 μL of a 2 mM stock solution. Aliquots (5 μL) of these solutions were added to a 96-well plate, followed by 195 μL of diluted S. aureus 10390 (10^6 CFUs/mL) to yield ca. 50 μM final concentrations. The plates were swirled for 1 h to ensure compound dissolution, incubated for 12 h at 37° C., and the absorbance at 595 nm was recorded using a plate reader. […] Actual MIC values were determined for lead compounds resynthesized in solution using an analogous procedure with solutions of known concentration (see).
(§2) Dose response growth inhibition curves were determined for each active compound (resynthesized in solution) against S. aureus 10390 (SA) and methicillin-resistant S. aureus 33591 (MRSA). […] MIC assays were performed in quadruplicate.

The subject of assay [1] is Methicillin-resistant S. aureus ATCC 33591 (MRSA). The assay is described as above. The class given is cell-based. The conditions noted are these: Staphylococcus aureus; Table 3; authentic sample, only trans isomers of chalcones; error reflects step size in the serial dilutions. The method, then:
as §1, §2

Converted amounts (≈) assume the structure as drawn. Like-named read-outs stand apart in the source and are kept apart here.

Broadly, the MIC is the lowest concentration that inhibits growth of the organism. For the compound `O=C(/C=C/c1cc(C(F)(F)F)cc(C(F)(F)F)c1)c1cccc(O)c1` [Compound 4Bv, 3′-hydroxy-3,5-bis(trifluoromethyl)chalcone], the MIC came out at 3.3 ± 0.3 µM (≈ 1.19 µg/mL) in the assay with S. aureus ATCC 10390 (Table 2, authentic sample synthesized according to standard techniques, read-out: observed MIC); 3.5 ± 0.5 µM (≈ 1.26 µg/mL) with S. aureus ATCC 10390 (Table 3, authentic sample, only trans isomers of chalcones, error reflects step size in the serial dilutions, read-out: S. aureus MIC); 3 ± 0.5 µM (≈ 1.08 µg/mL) in assay [1]. Besides, the “MIC against S. aureus 10390” value against S. aureus ATCC 10390 (values quoted in killing-curve protocol, unit not given) is recorded as “ca. 3.5”.

For the origin of these results see patent publication US8227616B2, “Cyanopyridine antibacterial agents and methods of use thereof” (Wisconsin Alumni Research Foundation, priority 2006, dated 2012).
